{"source": "paper PMC11992225", "about": "“Antibacterial compounds against non-growing and intracellular bacteria” (npj Antimicrobials and Resistance, 2025)", "key": {"non-growing UPEC CFT073": {"system": "non-growing UPEC CFT073", "test": "Dose-dependent killing analysis (CFU spot-plating) of stationary-phase UPEC", "format": "cell-based, Escherichia coli", "summary_of_the_method": "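Non-growing (stationary-phase) UPEC CFT073 treated with compounds in 96-well format at 200 μl, then 10-fold serially diluted in PBS and 10 μl spots plated on LB agar. Plates incubated overnight at 37 °C; colonies counted at lowest resolvable dilution to give CFU. Three biological replicates.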"}, "[1]": {"system": "non-growing P. aeruginosa DSM1117", "test": "Dose-dependent killing analysis (CFU spot-plating) of stationary-phase P. aeruginosa", "format": "cell-based, Pseudomonas aeruginosa", "conditions": "for killing, average Δlog10(CFU/ml) / log10(CFU/ml) of treated nongrowing bacteria (single replicates): P. aeruginosa; for log10(CFU/ml) of treated nongrowing bacteria (single replicates): before treatment 8.887", "summary_of_the_method": "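Stationary-phase P. aeruginosa DSM1117 treated for 24 h in 1:4 CA-MHB, pH 7.4, across compound doses. Survivors counted after 10-fold PBS dilution, spot-plating on LB agar and overnight growth at 37 °C; three biological replicates.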"}, "[2]": {"system": "non-growing S. aureus DSM2569", "test": "Dose-dependent killing analysis (CFU spot-plating) of stationary-phase S. aureus", "format": "cell-based, Staphylococcus aureus", "conditions": "for killing, average Δlog10(CFU/ml) / log10(CFU/ml) of treated nongrowing bacteria (single replicates): S. aureus; for log10(CFU/ml) of treated nongrowing bacteria (single replicates): before treatment 9,097", "summary_of_the_method": "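Stationary-phase S. aureus DSM2569 was grown and treated for 24 h in 1:4 CA-MHB at pH 7.4. Treated samples were serially diluted 10-fold in PBS and spot-plated on LB agar, which was incubated overnight at 37 °C. Survivors were counted as CFU over three biological replicates.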"}, "[3]": {"system": "intracellular S. flexneri 5a M90T in TC7 cells", "test": "microbe, parasite or virus in culture", "format": "cell-based, Shigella flexneri"}}, "note": "Several values for one entry are separate records, joined by “and”; a condition that tells them apart may be missing. Equal entries are not always repeated."}
{"smiles": "N[C@@H]1CN(c2c(F)cc3c(=O)c(C(=O)O)cn([C@@H]4C[C@@H]4F)c3c2Cl)CC12CC2", "note": "[Sitafloxacin]", "values": [{"measurement": "bactericidal activity against non-growing UPEC (CFU counting)", "setting": "non-growing UPEC CFT073; 24 h treatment of stationary phase culture", "value": "most potent and bactericidal"}, {"measurement": "killing, average Δlog10(CFU/ml)", "setting": "non-growing UPEC CFT073; E. coli in 1:4 CA-MHB (pH 7.4), drug concentration 0.25", "value": "1.161 log10(CFU/ml)"}, {"measurement": "log10(CFU/ml) of treated nongrowing bacteria (single replicates)", "setting": "non-growing UPEC CFT073; E. coli in 1:4 CA-MHB (pH 7.4), drug concentration 0.25, before treatment 8.977", "value": "8.415 log10(CFU/ml) and 7.602 log10(CFU/ml) and 7.431 log10(CFU/ml)"}, {"measurement": "killing, average Δlog10(CFU/ml)", "setting": "non-growing UPEC CFT073; E. coli in 1:4 CA-MHB (pH 7.4), drug concentration 0.5", "value": "2.277 log10(CFU/ml)"}, {"measurement": "log10(CFU/ml) of treated nongrowing bacteria (single replicates)", "setting": "non-growing UPEC CFT073; E. coli in 1:4 CA-MHB (pH 7.4), drug concentration 0.5, before treatment 8.977", "value": "7.255 log10(CFU/ml) and 6.699 log10(CFU/ml) and 6.146 log10(CFU/ml)"}, {"measurement": "killing, average Δlog10(CFU/ml)", "setting": "non-growing UPEC CFT073; E. coli in 1:4 CA-MHB (pH 7.4), drug concentration 1", "value": "3.175 log10(CFU/ml)"}, {"measurement": "log10(CFU/ml) of treated nongrowing bacteria (single replicates)", "setting": "non-growing UPEC CFT073; E. coli in 1:4 CA-MHB (pH 7.4), drug concentration 1, before treatment 8.977", "value": "6.204 log10(CFU/ml) and 5.903 log10(CFU/ml) and 5.301 log10(CFU/ml)"}, {"measurement": "killing, average Δlog10(CFU/ml)", "setting": "non-growing UPEC CFT073; E. coli in 1:4 CA-MHB (pH 7.4), drug concentration 2.5", "value": "4.145 log10(CFU/ml)"}, {"measurement": "log10(CFU/ml) of treated nongrowing bacteria (single replicates)", "setting": "non-growing UPEC CFT073; E. coli in 1:4 CA-MHB (pH 7.4), drug concentration 2.5, before treatment 8.977", "value": "5.176 log10(CFU/ml) and 4.477 log10(CFU/ml) and 4.845 log10(CFU/ml)"}, {"measurement": "killing, average Δlog10(CFU/ml)", "setting": "non-growing UPEC CFT073; E. coli in 1:4 CA-MHB (pH 7.4), drug concentration 5", "value": "4.067 log10(CFU/ml)"}, {"measurement": "log10(CFU/ml) of treated nongrowing bacteria (single replicates)", "setting": "non-growing UPEC CFT073; E. coli in 1:4 CA-MHB (pH 7.4), drug concentration 5, before treatment 8.977", "value": "5.255 log10(CFU/ml) and 4.699 log10(CFU/ml) and 4.778 log10(CFU/ml)"}, {"measurement": "killing, average Δlog10(CFU/ml)", "setting": "non-growing UPEC CFT073; E. coli in 1:4 CA-MHB (pH 7.4), drug concentration 10", "value": "4.500 log10(CFU/ml)"}, {"measurement": "log10(CFU/ml) of treated nongrowing bacteria (single replicates)", "setting": "non-growing UPEC CFT073; E. coli in 1:4 CA-MHB (pH 7.4), drug concentration 10, before treatment 8.977", "value": "4.954 log10(CFU/ml) and =<4 log10(CFU/ml) and 4.477 log10(CFU/ml)"}, {"measurement": "killing, average Δlog10(CFU/ml)", "setting": "non-growing UPEC CFT073; E. coli in LPM (pH 5.5), drug concentration 0.25", "value": "-0.135 log10(CFU/ml)"}, {"measurement": "log10(CFU/ml) of treated nongrowing bacteria (single replicates)", "setting": "non-growing UPEC CFT073; E. coli in LPM (pH 5.5), drug concentration 0.25, before treatment 7.350", "value": "7.000 log10(CFU/ml) and 7.176 log10(CFU/ml) and 8.279 log10(CFU/ml)"}, {"measurement": "killing, average Δlog10(CFU/ml)", "setting": "non-growing UPEC CFT073; E. coli in LPM (pH 5.5), drug concentration 0.5", "value": "0.023 log10(CFU/ml)"}, {"measurement": "log10(CFU/ml) of treated nongrowing bacteria (single replicates)", "setting": "non-growing UPEC CFT073; E. coli in LPM (pH 5.5), drug concentration 0.5, before treatment 7.350", "value": "6.778 log10(CFU/ml) and 7.000 log10(CFU/ml) and 8.204 log10(CFU/ml)"}, {"measurement": "killing, average Δlog10(CFU/ml)", "setting": "non-growing UPEC CFT073; E. coli in LPM (pH 5.5), drug concentration 1", "value": "-0.037 log10(CFU/ml)"}, {"measurement": "log10(CFU/ml) of treated nongrowing bacteria (single replicates)", "setting": "non-growing UPEC CFT073; E. coli in LPM (pH 5.5), drug concentration 1, before treatment 7.350", "value": "7.146 log10(CFU/ml) and 7.114 log10(CFU/ml) and 7.903 log10(CFU/ml)"}, {"measurement": "killing, average Δlog10(CFU/ml)", "setting": "non-growing UPEC CFT073; E. coli in LPM (pH 5.5), drug concentration 2.5", "value": "0.324 log10(CFU/ml)"}, {"measurement": "log10(CFU/ml) of treated nongrowing bacteria (single replicates)", "setting": "non-growing UPEC CFT073; E. coli in LPM (pH 5.5), drug concentration 2.5, before treatment 7.350", "value": "7.000 log10(CFU/ml) (2×) and 7.079 log10(CFU/ml)"}, {"measurement": "killing, average Δlog10(CFU/ml)", "setting": "non-growing UPEC CFT073; E. coli in LPM (pH 5.5), drug concentration 5", "value": "1.016 log10(CFU/ml)"}, {"measurement": "log10(CFU/ml) of treated nongrowing bacteria (single replicates)", "setting": "non-growing UPEC CFT073; E. coli in LPM (pH 5.5), drug concentration 5, before treatment 7.350", "value": "6.301 log10(CFU/ml) and 6.954 log10(CFU/ml) and 5.748 log10(CFU/ml)"}, {"measurement": "killing, average Δlog10(CFU/ml)", "setting": "non-growing UPEC CFT073; E. coli in LPM (pH 5.5), drug concentration 10", "value": "1.383 log10(CFU/ml)"}, {"measurement": "log10(CFU/ml) of treated nongrowing bacteria (single replicates)", "setting": "non-growing UPEC CFT073; E. coli in LPM (pH 5.5), drug concentration 10, before treatment 7.350", "value": "6.279 log10(CFU/ml) and 6.544 log10(CFU/ml) and 5.079 log10(CFU/ml)"}, {"measurement": "killing, average Δlog10(CFU/ml)", "setting": "[1]; drug concentration 0.1", "value": "1.534 log10(CFU/ml)"}, {"measurement": "log10(CFU/ml) of treated nongrowing bacteria (single replicates)", "setting": "[1]; drug concentration 0.1", "value": "7.699 log10(CFU/ml) and 7.362 log10(CFU/ml) and 7.000 log10(CFU/ml)"}, {"measurement": "killing, average Δlog10(CFU/ml)", "setting": "[1]; drug concentration 0.5", "value": "3.935 log10(CFU/ml)"}, {"measurement": "log10(CFU/ml) of treated nongrowing bacteria (single replicates)", "setting": "[1]; drug concentration 0.5", "value": "5.954 log10(CFU/ml) and 4.903 log10(CFU/ml) and =<4 log10(CFU/ml)"}, {"measurement": "killing, average Δlog10(CFU/ml)", "setting": "[1]; drug concentration 2.5", "value": "4.787 log10(CFU/ml)"}, {"measurement": "log10(CFU/ml) of treated nongrowing bacteria (single replicates)", "setting": "[1]; drug concentration 2.5", "value": "=<4 log10(CFU/ml) (2×) and 4.301 log10(CFU/ml)"}, {"measurement": "killing, average Δlog10(CFU/ml)", "setting": "[1]; drug concentration 10", "value": "4.353 log10(CFU/ml)"}, {"measurement": "log10(CFU/ml) of treated nongrowing bacteria (single replicates)", "setting": "[1]; drug concentration 10", "value": "5.000 log10(CFU/ml) and 4.602 log10(CFU/ml) and =<4 log10(CFU/ml)"}, {"measurement": "reduction of bacterial counts, stationary phase P. aeruginosa", "setting": "[1]; at 0.5 µM, 24 h treatment", "value": "more than four"}, {"measurement": "reduction of bacterial counts, non-growing P. aeruginosa", "setting": "[1]; at 2.5 µM, 1:4 CA-MHB pH 7.4, 24 h treatment", "value": "more than four"}, {"measurement": "killing of non-growing S. aureus (reduction of bacterial counts)", "setting": "[2]; 10 to 0.1 μM, 24 h treatment", "value": "the most activity"}, {"measurement": "killing, average Δlog10(CFU/ml)", "setting": "[2]; drug concentration 0.1", "value": "0.348 log10(CFU/ml)"}, {"measurement": "log10(CFU/ml) of treated nongrowing bacteria (single replicates)", "setting": "[2]; drug concentration 0.1", "value": "8.602 log10(CFU/ml) and 8.881 log10(CFU/ml) and 8.763 log10(CFU/ml)"}, {"measurement": "killing, average Δlog10(CFU/ml)", "setting": "[2]; drug concentration 0.5", "value": "1.504 log10(CFU/ml)"}, {"measurement": "log10(CFU/ml) of treated nongrowing bacteria (single replicates)", "setting": "[2]; drug concentration 0.5", "value": "7.223 log10(CFU/ml) and 7.833 log10(CFU/ml) and 7.724 log10(CFU/ml)"}, {"measurement": "killing, average Δlog10(CFU/ml)", "setting": "[2]; drug concentration 2.5", "value": "2.447 log10(CFU/ml)"}, {"measurement": "log10(CFU/ml) of treated nongrowing bacteria (single replicates)", "setting": "[2]; drug concentration 2.5", "value": "6.820 log10(CFU/ml) and 6.716 log10(CFU/ml) and 6.413 log10(CFU/ml)"}, {"measurement": "killing, average Δlog10(CFU/ml)", "setting": "[2]; drug concentration 10", "value": "2.500 log10(CFU/ml)"}, {"measurement": "log10(CFU/ml) of treated nongrowing bacteria (single replicates)", "setting": "[2]; drug concentration 10", "value": "6.908 log10(CFU/ml) and 6.613 log10(CFU/ml) and 6.270 log10(CFU/ml)"}, {"measurement": "Fluorescence intensity (RFU), Mean, 2 x MIC", "setting": "[3]; TC7 cells infected with GFP-expressing S. flexneri, 14 h treatment, 2 x MIC", "value": 4007.53, "unit": "RFU"}, {"measurement": "Fluorescence intensity (RFU), Mean, 4 x MIC", "setting": "[3]; TC7 cells infected with GFP-expressing S. flexneri, 14 h treatment, 4 x MIC", "value": 3422.83, "unit": "RFU"}, {"measurement": "Fluorescence intensity (RFU), Mean, 8 x MIC", "setting": "[3]; TC7 cells infected with GFP-expressing S. flexneri, 14 h treatment, 8 x MIC", "value": 3200.25, "unit": "RFU"}, {"measurement": "Fluorescence intensity (RFU), Mean, 16 x MIC", "setting": "[3]; TC7 cells infected with GFP-expressing S. flexneri, 14 h treatment, 16 x MIC", "value": 2414.89, "unit": "RFU"}, {"measurement": "Fluorescence intensity (RFU), Mean, 32 x MIC", "setting": "[3]; TC7 cells infected with GFP-expressing S. flexneri, 14 h treatment, 32 x MIC", "value": 2083.61, "unit": "RFU"}, {"measurement": "Fluorescence intensity (RFU), Mean, MIC", "setting": "[3]; TC7 cells infected with GFP-expressing S. flexneri, 14 h treatment, MIC", "value": 5217.75, "unit": "RFU"}, {"measurement": "IC50", "setting": "[3]; intracellular S. flexneri in TC7 cells, GFP fluorescence after 14 h treatment, read-out: IC50", "value": 25, "unit": "nM"}]}
